The results in this text go back to PubChem BioAssay (NCI).

Each structure is given as a SMILES string.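 48-hour exposure; five concentrations; linearly interpolated endpoints. Abbreviation: GI50, concentration required for 50% inhibition of growth. Definition used: TGI = concentration required for complete inhibition of growth.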

By TGI is commonly meant the concentration at which net growth stops. Usually GI50 stands for the concentration at which growth is held to half of that of the control.

Holding throughout (test): DTP human tumour cell line panel, 48 h
Test [1] has as its system SNB-19 CNS.
In test [2] the test system is SNB-75 CNS.
Test [3] has as its system SF-539 CNS.
Test [4] concerns NCI-H23 lung.
For test [5], the system named is OVCAR-8 ovarian.
Test [6] concerns SN12C renal.
The test system of test [7] is TK-10 renal.
Test [8] relates to A498 renal.
The subject of test [9] is NCI-H226 lung.
Test [10] has as its system CCRF-CEM leukemia.

Consider `O=C(/C(=N/Nc1ccccc1)c1ccc([N+](=O)[O-])cc1)c1ccc([N+](=O)[O-])cc1`, for which the total growth inhibition concentration (TGI) in [1], in test [2], in test [3], in [4], in test [5] and in [6] was greater than 100 µM each time. The compound further had a total growth inhibition concentration (TGI) in [7] greater than 100 µM.

For `O=C([CH-]C(=O)c1ccccc1)c1ccccc1.O=C([CH-]C(=O)c1ccccc1)c1ccccc1.O=C([CH-]C(=O)c1ccccc1)c1ccccc1.[Cl-].[Zr+4]`, the GI50 in test [2] was 3.34 µM; in test [4] it was 16.9 µM; in test [8], 18.7 µM; in test [6] it was 35.9 µM; in [7], 27.6 µM. Besides, the TGI in [2] is 30.1 µM; in test [4] it was 99.7 µM; in test [8], 58.6 µM; in test [6], greater than 100 µM; in test [7], 72.4 µM.

`CCC[CH2][Sn]([CH2]CCC)([O]C(=O)c1cccc(F)c1F)[O]C(=O)c1cccc(F)c1F`: the GI50 in test [1] was 1.48 µM; in test [2], 0.874 µM; in [9], 1.25 µM; in test [3], 1.27 µM; in test [4], 0.614 µM; in test [8], 1.15 µM. The results for the GI50 in [5], in test [6] and in test [7] were 1.3 µM, 1.19 µM and 1.72 µM, respectively. Besides, the TGI in test [1] worked out at 2.8 µM; in [2], 2.1 µM; in test [9], 2.52 µM; in [3], 2.56 µM; in test [4], 1.89 µM; in [8], 2.39 µM. Besides, the concentration for total growth inhibition (TGI) in test [5] came to 2.57 µM; in test [6], 2.44 µM; in test [7], 3.11 µM.

For the compound `COc1cc(-c2cc3ncccc3c3[nH]c(=O)c4cccnc4c23)cc(OC)c1OC`, the GI50 in test [1] was 0.981 µM; in [2] it was 0.271 µM; in [9], 23.6 µM; in test [3], 0.488 µM; in [4], 2.3 µM; in test [10] it was 0.623 µM. The GI50 in test [5] was 2.51 µM; in [6], 14.3 µM; in [7] it was 17.2 µM. For the same compound, the total growth inhibition concentration (TGI) in test [1] is greater than 100 µM; in test [2], 62.9 µM; in test [9] it was greater than 100 µM; in [3], 5.84 µM; in test [4] it was greater than 100 µM; in test [10] it was greater than 100 µM. Besides, the TGI in [5], in test [6] and in [7] was greater than 100 µM throughout.

With `COc1ccc2c(c1)[n+](=O)c(C(=O)CC(=O)C(=O)Nc1cccc(C)c1C)c(C)n2[O-]`, the concentration for total growth inhibition (TGI) in test [1], in test [9], in [3], in test [4], in test [10] and in test [5] was greater than 100 µM throughout. Also, the TGI in [6] and in test [7] was greater than 100 µM throughout.

In the case of `COc1cc2nc(-c3cccc4cccnc34)nc(NC3CCN(Cc4ccccc4)CC3)c2cc1OC`, the GI50 is 1.34 µM in [1]; 1.84 µM in [2]; 1.4 µM in test [3]; 1.37 µM in test [4]; 0.576 µM in test [10]; 1.83 µM in [8]. In addition, the GI50 in test [5] was 0.647 µM; in test [6], 1.11 µM; in test [7] it was 1.52 µM. Besides, the TGI in test [1] was determined as 3.16 µM; in test [2], 3.56 µM; in test [3], 2.92 µM; in test [4], 3.11 µM; in test [10], 2.83 µM; in test [8] it was 3.39 µM. In addition, the TGI was 2.64 µM in test [5], 2.58 µM in test [6] and 2.98 µM in test [7].

For `c1cc[c]([Sn]([O]c2cccc3cccnc23)([O]c2cccc3cccnc23)[c]2ccccc2)cc1`, the GI50 was 0.419 µM in [2]; 0.385 µM in test [3]; 0.209 µM in test [4]; 0.183 µM in test [10]; 0.294 µM in [5]; 0.481 µM in test [6]. Moreover, the GI50 in test [7] was 1.31 µM. Besides, the TGI was 1.45 µM in [2]; 1.32 µM in test [3]; 0.5 µM in [4]; 0.44 µM in test [10]; 0.859 µM in test [5]; 1.64 µM in [6]. This compound registered a TGI in test [7] of 2.73 µM.

For the compound `COc1ccc(-c2nc(N)c(C#N)c3c2CCOc2c-3ccc3ccccc23)cc1`, the GI50 in test [1] is 24.2 µM; in test [2] it was greater than 100 µM; in [9] it was 18 µM; in test [3], 21.2 µM; in [4], 19.4 µM; in test [10], greater than 100 µM. Also, the GI50 in [5] is 23.3 µM; in test [6] it was 21 µM; in test [7] it was 21.5 µM. The concentration for total growth inhibition (TGI) in [1] was 91 µM; in [2], greater than 100 µM; in [9], 58.2 µM; in test [3], 52.6 µM; in test [4], 61.9 µM; in test [10] it was greater than 100 µM. Besides, the TGI in test [5] was found to be 58 µM; in [6], 76.5 µM; in test [7], 53.2 µM.

For the compound `CC(C)(C)c1nc(-c2cccc(NS(=O)(=O)c3c(F)cccc3F)c2F)c(-c2ccnc(N)n2)s1`, the GI50 in [1] was 71.5 µM; in test [9], 32.9 µM; in [3], 39.2 µM; in [4], 10.3 µM; in [10], 21.7 µM; in test [5] it was 49.1 µM. Further, the figures for the GI50 in [6] and in test [7] were 17.7 µM and 31.8 µM, respectively. Also, the TGI in test [1] is greater than 100 µM; in [9], greater than 100 µM; in test [3], greater than 100 µM; in [4], 98.6 µM; in test [10], greater than 86.2 µM; in test [5] it was greater than 100 µM. For the same compound, the TGI in test [6] and in test [7] was greater than 100 µM in each case.

With `O=C(/C=C\n1cnc(-c2cc(C(F)(F)F)cc(C(F)(F)F)c2)n1)N1CC(F)(F)C1`, the GI50 in [1] is 0.273 µM; in test [2], 0.432 µM; in [3], 0.161 µM; in test [4] it was 0.391 µM; in [10], 0.407 µM; in [8], 0.0375 µM. Moreover, the GI50 in test [5] was 0.442 µM; in test [6], 1.19 µM; in test [7] it was 0.645 µM. Further, the TGI in [1] was greater than 25 µM; in test [2], 6.44 µM; in [3], 1.58 µM; in [4], 5.61 µM; in test [10], greater than 18.8 µM; in test [8], 0.452 µM. Also, the values for the TGI in test [5], in [6] and in test [7] were greater than 11.8 µM, greater than 25 µM and 3.7 µM, respectively.

With `CCCCN1C(=O)/C(=c2\sc3n(c2=O)C2C(NN=3)N(CC)C(=O)N2CC)c2ccccc21` (stereo not drawn), the GI50 in test [1] was 1.61 µM; in test [2], 0.258 µM; in test [3] it was 0.371 µM; in test [4] it was 1.77 µM; in [10], 1.81 µM; in test [8] it was 0.169 µM. The GI50 in test [7] is 1.82 µM. Besides, the TGI in [1] is 28.1 µM; in test [2], 1.56 µM; in [3], 1.46 µM; in test [4], greater than 35 µM; in [10], greater than 100 µM; in [8], 0.721 µM. In test [7], this compound displayed a TGI of 6.26 µM.

On to `O=c1[nH]c(=O)n(C2CC(O)C(CO)O2)cc1COCC(F)(F)F` (stereo not drawn), for which the TGI in test [1], in test [2], in test [3], in test [4], in [10] and in test [8] was greater than 100 µM throughout. Besides, the TGI in [5], in test [6] and in test [7] was greater than 100 µM in each case.

For `C=Cc1c(C)c2cc3[nH]c(cc4nc(cc5nc(cc1[nH]2)C(C)=C5CCC(=O)N(CC)CC)C(CCC(=O)N(CC)CC)=C4C)c(C)c3C=C`, the TGI in test [2] was 88.3 µM; in [3], greater than 100 µM; in test [4], greater than 100 µM; in [10], greater than 100 µM; in test [5] it was greater than 100 µM; in test [6] it was greater than 100 µM. The compound further displayed a TGI in test [7] greater than 100 µM.

`O=C(NC(=O)c1cn(CCN2CCN(C(=O)NCCCCCCNC(=O)N3CCN(CCn4cc(C(=O)NC(=O)OCc5ccccc5)c(=O)[nH]c4=O)CC3)CC2)c(=O)[nH]c1=O)OCc1ccccc1`: the TGI in test [1], in test [2], in [3], in test [4], in test [10] and in test [5] was greater than 100 µM each time. For the same compound, the TGI in [6] and in test [7] was greater than 100 µM in each case.

Turning to `Cc1cn2c(/C=N/N=C(N)N)c(-c3ccncc3)nc2s1`, the GI50 in test [1] was 16.4 µM; in test [9], 21.8 µM; in [4], 16.6 µM; in [10], 7.16 µM; in test [5], 14.7 µM; in [6], 32.7 µM. Besides, in test [7], the GI50 is 15 µM. Besides, the total growth inhibition concentration (TGI) worked out at 31.3 µM in test [1]; 40.5 µM in test [9]; 30.2 µM in test [4]; 22.4 µM in test [10]; 30.9 µM in [5]; 69.7 µM in test [6]. Moreover, the TGI in [7] came to 28.6 µM.

As to `COC(=O)CC(=O)NCC1=CCC(=O)CC1`, the total growth inhibition concentration (TGI) in test [1], in [2], in [3], in test [4], in [10] and in [8] was greater than 100 µM in each case. The TGI in test [5], in [6] and in test [7] was greater than 100 µM each time.

`CCN(CC)c1ccc(/C=N/NC(=O)CSc2nc3ccccc3c(=O)n2Cc2ccc(S(N)(=O)=O)cc2)c(O)c1`: the GI50 in test [1] is 2.1 µM; in test [2], 2.86 µM; in test [9], 0.895 µM; in [3] it was 1.26 µM; in test [4], 1.96 µM; in [10] it was 0.196 µM. Further, the GI50 is 0.932 µM in [5], 1.93 µM in [6] and 1.66 µM in [7]. Also, the concentration for total growth inhibition (TGI) in test [1], in test [2], in test [9], in [3], in test [4] and in [10] was greater than 100 µM in each case. In addition, the concentration for total growth inhibition (TGI) in [5], in test [6] and in [7] was greater than 100 µM each time.

Take `O=c1c2cccnc2ncn1CCCN1CCCC1`: the TGI in test [1], in [2], in [9], in [3], in [4] and in test [10] was greater than 100 µM each time. The concentration for total growth inhibition (TGI) in test [5], in [6] and in test [7] was greater than 100 µM throughout.

With `Cc1ccc(O)c(NC2=C(Cl)C(=O)N(Cc3ccccc3)C2=O)c1`, the GI50 in [1] is 46 µM; in test [9] it was 15 µM; in test [4] it was 25.8 µM; in test [10] it was 4.54 µM; in [5], 18.3 µM; in [6], 14.9 µM. Besides, the GI50 in [7] was 38.3 µM. Besides, the TGI was greater than 100 µM in test [1]; 37.3 µM in test [9]; 68.6 µM in [4]; 29 µM in [10]; 39.3 µM in test [5]; 32.7 µM in [6]. The TGI in [7] was greater than 100 µM.

As to `COc1cc(NC(C)CCCNC(C)C)c2ncccc2c1OC` (stereo not drawn), the GI50 in test [1] is greater than 100 µM; in test [2], 20.5 µM; in test [9], greater than 100 µM; in test [3], greater than 100 µM; in [4], greater than 100 µM; in [8], 0.416 µM. The GI50 in [5] and in test [6] was greater than 100 µM each time. Besides, the TGI in [1], in test [2], in [9], in [3], in [4] and in test [8] was greater than 100 µM each time. Also, the total growth inhibition concentration (TGI) in test [5] and in test [6] was greater than 100 µM in each case.
